From patent US20140288040A1, “SUBSTITUTED BENZYLAMINE COMPOUNDS, THEIR USE IN MEDICINE, AND IN PARTICULAR THE TREATMENT OF HEPATITIS C VIRUS (HCV) INFECTION” (ASTEX THERAPEUTICS LIMITED, priority 2011, published 2014)
Where a name gives a salt, the structure may show the parent alone. Read-outs that look alike come from different tables or passages of the source.

Key:
[1] = biological target: T1, HCV NS3 protease (full length NS34a) (Hepatitis C virus genotype 1b, UniProt P26663); test: HCV NS3 protease assay (FRET, full length NS34a); assay type: biochemical
T1 construct: The protease activity of the full length NS34a was measured using a FRET-based assay; made in house
T1 sequence (P26663 1658-1711): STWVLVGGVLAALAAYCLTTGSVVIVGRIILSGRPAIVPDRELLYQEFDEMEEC
T1 sequence (P26663 1027-1657): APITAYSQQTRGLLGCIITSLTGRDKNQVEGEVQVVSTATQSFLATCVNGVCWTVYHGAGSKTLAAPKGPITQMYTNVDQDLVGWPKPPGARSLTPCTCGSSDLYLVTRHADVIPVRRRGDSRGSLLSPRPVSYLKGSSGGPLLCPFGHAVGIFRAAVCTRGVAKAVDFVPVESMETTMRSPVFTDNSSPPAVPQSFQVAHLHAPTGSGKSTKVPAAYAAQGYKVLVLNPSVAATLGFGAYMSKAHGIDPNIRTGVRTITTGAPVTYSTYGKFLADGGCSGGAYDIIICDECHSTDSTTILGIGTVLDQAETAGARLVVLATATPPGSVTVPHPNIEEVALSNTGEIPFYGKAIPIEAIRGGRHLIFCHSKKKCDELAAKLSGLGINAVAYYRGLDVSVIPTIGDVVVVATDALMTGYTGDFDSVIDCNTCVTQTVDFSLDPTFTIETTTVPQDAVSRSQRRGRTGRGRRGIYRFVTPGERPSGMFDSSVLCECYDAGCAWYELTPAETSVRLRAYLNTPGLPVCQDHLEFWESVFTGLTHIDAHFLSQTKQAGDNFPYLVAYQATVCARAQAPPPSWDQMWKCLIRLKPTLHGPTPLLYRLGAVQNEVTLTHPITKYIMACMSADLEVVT
In short: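 FRET readout over 30 minutes at room temperature, with IC50 fitted to initial rates from replicate curves. Enzyme was full-length NS34a; substrate a peptide from the NS4AB cleavage site labelled with QXL520 and 5-FAMsp; buffer 50 mM Tris pH8 containing 20 mM DTT, 1% CHAPS, 10% glycerol and 5% DMSO.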

[2] = system: HCV subgenomic replicon in Huh-7 cells; test: Replicon assay, EC50 luciferase readout; assay type: cell-based, hepatitis C virus (HCV); conditions: Hepatitis C virus, Huh-7, 72 h, Huh-7 replicon cells, 72 h; single value, or second value of a pair x:y; read-out: Activity EC50 (μM) (EC50 luciferase readout)
Description: The activities of compounds of the invention against HCV in a cellular environment were analysed using a replicon assay as described below.
Thus, Huh-7 cells persistently infected with an HCV-RNA construct (Bartenschlager, R. Hepatitis C replicons: potential role for drug development. Nature Rev. Drug Discov. 1, 911-916 (2002)) comprising: 5′ and 3′ non-translated regions (NTR); the non-structural genes NS3 to NS5b; as well as the G418 drug resistance gene, neomycin, (for selection of cells carrying HCV replicon RNA) fused to the firefly Luciferase reporter gene (pFK13889luc-ubi-neoNS3-3′ET), were used to determine the cell based antiviral activity of compounds using luciferase activity as an indirect readout of HCV RNA load. In this assay […] huh-7 cells persistently infected with the HCV subgenomic replicon construct above were platedwell in a 96 well tissue culture plate. The cells were allowed to attach overnight in DMEM medium supplemented with 10% FBS 1% NEAA, and 250 μgml gentamicin. The following day the medium was replaced with 200 μlwell of fresh medium as described above lacking gentamicin. […] Plates were then incubated at 37° C. in an atmosphere of 5% CO2 and air for 72 h. […] The plate was then read at 535 nm (excitation) and 590 nm (emission) on a SpectraMax Gemini reader (Molecular Devices) to determine the number of viable cells by measuring the conversion of rezasurin (Alamar blue) to resorufin in response to mitochondrial activity. In order to determine the antiviral effect of these compounds EC50 values were determined by measuring the luciferase activity of the cells. Alamar blue solution was removed from the wells and replaced with 100 μlwell of medium along with 100 μlwell of Bright-Glo reagent and incubated at room temperature for 5 minutes before transferring 100 μlwell to a white bottom 96 well plate to read in a luminometer as described in the Bright-Glo Luciferase Assay System protocol (promega).

[3] = protease activity of full length NS34a, FRET peptide substrate, read-out: Activity IC50
[4] = IC50 values of 10-150 μM against the protease activity of the full length NS34a, or at least 40% inhibition of protease activity at a concentration of 100 μM

Row | SMILES | IC50 [1, 3] | EC50 [2] | IC50 [1, 4]
1 | CCC(NC(C)C)c1ccc(F)c(Oc2ccccc2)c1F (centres unmarked) [Example 34] | 4 µM | 1.2 µM | 
2 | CCC(NC1CCC1)c1ccc(F)c(Oc2ccccc2)c1F (centres unmarked) [Example 44] | 4.7 µM | 9.9 µM | 
3 | CCC(NCCO)c1ccc(F)c(Oc2ccccc2)c1F (centres unmarked) [Example 45, 2-[1-(2,4-Difluoro-3-phenoxy-phenyl)-propylamino]-ethanol. hydrochloride] | 1.7 µM | 9.1 µM | 
4 | CCC(NC(C)CC(=O)NC)c1ccc(F)c(Oc2ccccc2)c1F (centres unmarked) [Example 49] | 3.2 µM | > 30 µM | 
5 | NC(C1=NCCN1)c1ccc(F)c(Oc2ccccc2)c1F (centres unmarked) [Example 50, C-(2,4-Difluoro-3-phenoxy-phenyl)-C-(4,5-dihydro-1H-imidazol-2-yl)-methylamine.dihydrobromide] |  | 23 µM | 10 to 150 µM
6 | CC[C@H](N)c1ccc(F)c(Oc2ccccc2)c1F [Example 52] | 1.8 µM | 9.4 µM | 
7 | CCC(NCCCO)c1ccc(F)c(Oc2ccccc2)c1F (centres unmarked) [Example 56, 3-[1-(2,4-Difluoro-3-phenoxy-phenyl)-propylamino]-propan-1-ol.hydrochloride] | 1.1 µM | 11 µM | 
8 | CC[C@@H](N[C@@H](C)CO)c1ccc(F)c(Oc2ccccc2)c1F [Example 57] |  | 29 µM | 10 to 150 µM
9 | CC[C@@H](N[C@H](C)CO)c1ccc(F)c(Oc2ccccc2)c1F [Example 58] | 1 µM | 27 µM | 
10 | N[C@H](c1ccc(F)c(Oc2ccccc2)c1F)[C@@H]1CCCNC1 [Example 59B, C-(2,4-Difluoro-3-phenoxy-phenyl)-C-piperidin-3-yl-methylamine. dihydrochloride] | 2.1 µM | 3 µM | 
11 | N[C@H](c1ccc(F)c(Oc2ccccc2)c1F)[C@H]1CCCNC1 [Example 60, C-(2,4-Difluoro-3-phenoxy-phenyl)-C-piperidin-3-yl-methylamine.dihydrochloride] |  | 3 µM | 10 to 150 µM
12 | CC[C@H](N[C@@H](C)CO)c1ccc(F)c(Oc2ccccc2)c1F [Example 64] | 0.43 µM | 18 µM | 
13 | CC[C@H](N[C@H](C)CO)c1ccc(F)c(Oc2ccccc2)c1F [Example 65] | 2.1 µM | 12 µM | 
14 | CCC(NC(C)CC(N)=O)c1ccc(F)c(Oc2ccccc2)c1F (centres unmarked) [Example 66] | 0.75 µM | > 30 µM | 
15 | CCC(NC(C)c1c[nH]cn1)c1ccc(F)c(Oc2ccccc2)c1F (centres unmarked) [Example 67] | 3.4 µM | > 30 µM | 
16 | CC[C@H](N[C@@H](C)CC(N)=O)c1ccc(F)c(Oc2ccccc2)c1F [Example 70] | 0.73 µM | 27 µM | 
17 | CCC(NCCC(N)=O)c1ccc(F)c(Oc2ccccc2)c1F (centres unmarked) [Example 71] | 0.95 µM | > 30 µM | 
18 | NC(CC1CCNCC1)c1ccc(F)c(Oc2ccccc2)c1F (centres unmarked) [Example 72B, 1-(2,4-Difluoro-3-phenoxy-phenyl)-2-piperidin-4-yl-ethylamine. dihydrochloride] | 0.7 µM | 0.26 µM | 
19 | NC(c1ccc(=O)[nH]c1)c1ccc(F)c(Oc2ccccc2)c1F (centres unmarked) [Example 73, 5-[Amino-(2,4-difluoro-3-phenoxy-phenyl)-methyl]-1H-pyridin-2-one] |  | > 30 µM | 10 to 150 µM
20 | N[C@@H](c1ccc(F)c(Oc2ccccc2)c1F)[C@H]1CCC(=O)NC1 [Example 74A] |  | > 30 µM | 10 to 150 µM

Row | SMILES | IC50 [1, 3] | EC50 [2] | IC50 [1, 4]
21 | CC[C@H](N)c1ccc(Cl)c(Oc2ccccc2)c1F [Example 77] | 0.59 µM | 12 µM | 
22 | CC[C@@H](N)c1ccc(Cl)c(Oc2ccccc2)c1F [Example 78] | 1.2 µM | 9.6 µM | 
23 | CC[C@H](N[C@@H](C)CC(N)=O)c1ccc(Cl)c(Oc2ccccc2)c1F [Example 79, (S)-3-[(S)-1-(4-Chloro-2-fluoro-3-phenoxy-phenyl)-propylamino]-butyramide.hydrochloride] | 0.31 µM | > 10 µM | 
24 | CC[C@H](N[C@H](C)CC(N)=O)c1ccc(Cl)c(Oc2ccccc2)c1F [Example 80, (R)-3-[(S)-1-(4-Chloro-2-fluoro-3-phenoxy-phenyl)-propylamino]-butyramide.hydrochloride] |  | > 10 µM | 10 to 150 µM
25 | CC[C@H](NC(C)CO)c1ccc(Cl)c(Oc2ccccc2)c1F (some centres unmarked) [Example 81] | 0.39 µM | 11 µM | 
26 | N[C@H](CC1CCNCC1)c1ccc(F)c(Oc2ccccc2)c1F [Example 82] | 1.9 µM | 0.79 µM | 
27 | C[C@@H](CC(N)=O)N[C@H](CC1CCNCC1)c1ccc(F)c(Oc2ccccc2)c1F [Example 84] | 0.45 µM | 18 µM | 
28 | C[C@H](CC(N)=O)N[C@H](CC1CCNCC1)c1ccc(F)c(Oc2ccccc2)c1F [Example 85] |  | 18 µM | 10 to 150 µM
29 | OCCN[C@H](CC1CCNCC1)c1ccc(F)c(Oc2ccccc2)c1F [Example 87B, 2-[(R)-1-(2,4-Difluoro-3-phenoxy-phenyl)-2-piperidin-4-yl-ethylamino]-ethanol] |  | 3.9 µM | 10 to 150 µM
30 | C[C@@H](CO)N[C@H](CC1CCNCC1)c1ccc(F)c(Oc2ccccc2)c1F [Example 89] | 3.9 µM | 1.8 µM | 
31 | C[C@H](CO)N[C@H](CC1CCNCC1)c1ccc(F)c(Oc2ccccc2)c1F [Example 90] |  | 0.36 µM | 10 to 150 µM
32 | CC[C@H](NCCC(=O)NCC#N)c1ccc(F)c(Oc2ccccc2)c1F [Example 91, N-Cyanomethyl-3-[(S)-1-(2,4-difluoro-3-phenoxy-phenyl)-propylamino]-propionamide.hydrochloride] | 2.4 µM | > 10 µM | 
33 | CC[C@H](NCCC(=O)NCCO)c1ccc(F)c(Oc2ccccc2)c1F [Example 92, 3-[(S)-1-(2,4-Difluoro-3-phenoxy-phenyl)-propylamino]-N-(2-hydroxy-ethyl)-propionamide.hydrochloride] | 0.91 µM | > 30 µM | 
34 | N[C@@H](CC1CCNCC1)c1ccc(F)c(Oc2ccccc2)c1F [Example 93] | 0.79 µM | 1.8 µM | 
35 | C[C@H](CO)N[C@@H](CC1CCNCC1)c1ccc(F)c(Oc2ccccc2)c1F [Example 95B, (R)-2-[(S)-1-(2,4-Difluoro-3-phenoxy-phenyl)-2-piperidin-4-yl-ethylamino]-propan-1-ol.dihydrochloride] | 0.41 µM | 0.16 µM | 
36 | C[C@@H](CO)N[C@@H](CC1CCNCC1)c1ccc(F)c(Oc2ccccc2)c1F [Example 96] | 6.7 µM | 0.24 µM | 
37 | CC[C@@H](NCCC(N)=O)c1ccc(Cl)c(Oc2ccccc2)c1F [Example 97, 3-[(R)-1-(4-Chloro-2-fluoro-3-phenoxy-phenyl)-propylamino]-propionamide.hydrochloride] | 0.84 µM | > 10 µM | 
38 | C[C@@H](CC(N)=O)N[C@@H](CC1CCNCC1)c1ccc(F)c(Oc2ccccc2)c1F [Example 98] | 1.6 µM | > 10 µM | 
39 | CC[C@H](NCCO)c1ccc(F)c(Oc2ccccc2)c1F [Example 100, 2-[(S)-1-(2,4-Difluoro-3-phenoxy-phenyl)-propylamino]-ethanol.trifluoroacetate] | 1.1 µM | > 18 µM | 
40 | OCCN[C@@H](CC1CCNCC1)c1ccc(F)c(Oc2ccccc2)c1F [Example 101] | 1.3 µM | 0.23 µM | 
